Assay results reported in patent US10183955B2, “Molecules for isolation of polyribosomes, ribosomes, uses and kits thereof” (Immagina Biotechnology S.r.l., priority 2015, dated 2019).

Experiments:
[1] = tested on: in vitro-cell free translation system (IVTT euk-mix); experiment: In vitro cell-free expression of firefly luciferase (IVTT euk-mix), SDS-PAGE and luminescence; assay type: biochemical
Method: FIG. 9. Effect of 3P and puromycin on in vitro-cell free expression of the luciferase gene. Luciferase protein production in the presence of different concentrations of puromycin and 3P (left panel). The firefly luciferase is expressed in vitro (90 min) adding z-labeled biotinylated lysine-tRNAs to the reaction. After incubation with streptavidin-HRP, the protein is visualized by chemiluminescence.
To date, no structural data are available for puromycin binding in complex with the eukaryotic ribosome, while the bonding of a puromycin derivative in bacterial ribosome is well described^49. […] In particular, we tested the effect of 3P on an in vitro-cell free translation system (hereinafter called “IVTT euk-mix”: TNT Quick coupled Transcription/Translation System, Promega #L2881) using a firefly luciferase gene (Promega #L4741). […] After 90 minutes of incubation, we monitored the protein production by SDS-PAGE and luminescence assay (FIG. 9). […]
The luciferase translation efficiency was monitored by means of luminescence signal using the Bright-Glo™ Luciferase Assay System (Promega, E2610) and the Infinite 200 PRO reader (Tecan), according to the manufacturer's instruction. […]

IVTT euk-mix = experiment: EGFP expression in IVTT euk-mix, Western blot; assay type: biochemical; details: 1 hour, 30° C., 2 μg plasmid, 50 μL IVTT euk-mix
Method: FIG. 10. Expression of the firefly luciferase and the Enhanced Green Fluorescent Protein (EGFP) in the presence of 3P. (a, top), Effect of 3P on luciferase protein expression. ε-Labeled biotinylated lysine-tRNAs is used to monitor the protein production by SDS-PAGE. (a, bottom), Histogram representing the relative quantification (density fold change) of the bands reported in the western blot (up), respect to the control (input, reaction mix without 3P). Reactions are carried out in a final volume of 50 μL of IVTT euk-mix. Error bars represent s.d. calculated from a duplicate experiment; (b, top-left), Scheme of the plasmid used for EGFP expression. Restriction sites used to clone the gene are reported. (b, top-right) The effect of 3P on EGFP expression monitored by Western Blot analysis. Reactions are performed in a final volume of 50 μL of IVTT euk-mix (up) or IVTT pro-mix (down). (b, bottom). Effect of 3P and 3PP on EGFP expression in a IVTT euk-mix.
FIG. 15. Isolation of actively translated GFP transcripts after in vitro expression of EGFP protein. (a, left) The two plasmids used for EGFP expression (pBluescript II KS+, Genscript; pPR-IBA2, IBA, #2-1391-000). […] The relative abundance is reported as 2^(39-Cq), where 39 are the number of cycles and Cq is the quantification cycle. […]

SMILES | b of best fit y=A*exp(−x/b) of luciferase expression as a function of concentration (A=100) ([1]; concentrations 0, 0.01, 0.1, 1, 10 μM, n=3) | protein synthesis upon titration ([1]; firefly luciferase, 90 minutes, 0-10 μM) | effect on EGFP expression (free in solution) (IVTT euk-mix)
COc1ccc(C[C@H](N)C(=O)N[C@H]2[C@@H](O)[C@H](n3cnc4c(N(C)C)ncnc43)O[C@@H]2CO)cc1 [puromycin] | 0.020±0.003 | exponential decay of the protein synthesis | –
COC(=O)C[C@](O)(CCC(C)(C)O)C(=O)O[C@@H]1C(OC)=C[C@]23CCCN2CCc2cc4c(cc2[C@H]13)OCO4 [harringtonine] | – | – | inhibitory effect
